The record followed here is the supplement of paper PMC11208160.

The nature of this data set: recombinant UMI read abundance after kanamycin selection (control-corrected) (log10(CPM+1)); higher = more efficient recombination; extreme values may be limits of the assay; sequences stand for … in AGTGCAGAGAAAATCGGCCAGTTTTCTCTGCCTGCAGTCCGCATGCCGTGGGACCCCTTGGGTTCTAACCTGTTGCCTAGATTTATGCAGCGGACTGCCTTTCTCCCAAAGTGATAAACCGG…AGGTTGGTTTCACT; site = the 11-nt donor. An outline of the steps:
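Values, expressed as log10(CPM+1), derive from recombinant UMI counts converted to CPM, averaged across replicates and scaled by control-derived factors. Plating was with IPTG (0.07 mM) plus kanamycin or unselected, two replicates each. The screen pooled donor and donor-binding-loop pairs for the IS621 bridge recombinase in Escherichia coli.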
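Further: IS621 bridge recombinase in Escherichia coli cells against a fixed T5 target plasmid.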

On to “AGCCTCTCATGGACCGGTTTTCCCGGTAATCCGTATTTGAC (site AGCCTGTCTGT)”, for which the “recombinant UMI read abundance (log10)” value stood at 0.
As for “AGCCTCTCATGGACCGGTTTTCCCGGTAATCCGTATTTGAC (site AGCCTTTCTGT)”, the figure is 0; as for “AGCCTTACATGGACCGGTTTTCCCGGTAATCCGTATTTGAC (site AGCCTTACTGT)”, 2.52; as for “AGCCTTACATGGACCGGTTTTCCCGGTAATCCGTATTTGAC (site AGCCTTCCTGT)”, 0.
With “AGCCTTACATGGACCGGTTTTCCCGGTAATCCGTATTTGAC (site AGCCTTGCTGT)” the figure was 0; with “AGCCTTACATGGACCGGTTTTCCCGGTAATCCGTATTTGAC (site AGCCTTTCTGT)”, 0.
“AGCCTTGCATGGACCGGTTTTCCCGGTAATCCGTATTTGTA (site AGCCTTGCTTA)”: the “recombinant UMI read abundance (log10)” value amounted to 0.019.
With “AGCCTTTCATGGACCGGTTTTCCCGGTAATCCGTATTTGGC (site AGCCTTTCTGA)” the figure was 0; with “AGCCTTTCATGGACCGGTTTTCCCGGTAATCCGTATTTGGC (site AGCCTTTCTGC)”, 0; with “AGCCTTTCATGGACCGGTTTTCCCGGTAATCCGTATTTGGC (site AGCCTTTCTGG)”, 0.
With “AGCCTTTCATGGACCGGTTTTCCCGGTAATCCGTATTTGGC (site AGCCTTTCTGT)” the figure was 0.
Regarding “AGCGAGCCATGGACCGGTTTTCCCGGTAATCCGTATTTGTA (site AGCGAGCCTTA)”, the “recombinant UMI read abundance (log10)” value was 0.53.
As to “AGCGAGCCATGGACCGGTTTTCCCGGTAATCCGTATTTGTT (site AGCGAGCCTAA)”, the “recombinant UMI read abundance (log10)” value was found to be 0.501.
Turning to “AGCGGATCATGGACCGGTTTTCCCGGTAATCCGTATTTGAG (site AGCGGATCTCT)”, the “recombinant UMI read abundance (log10)” value was found to be 2.33.
With “AGCGTGGCATGGACCGGTTTTCCCGGTAATCCGTATTTGGG (site AGCGTGGCTCC)” the figure was 0.277; with “AGCGTTTCATGGACCGGTTTTCCCGGTAATCCGTATTTGAC (site AGCATTTCTGT)”, 0.
With “AGCGTTTCATGGACCGGTTTTCCCGGTAATCCGTATTTGAC (site AGCCTTTCTGT)” the figure was 0; with “AGCGTTTCATGGACCGGTTTTCCCGGTAATCCGTATTTGAC (site AGCGTTTCTGT)”, 2.63.
As for “AGCGTTTCATGGACCGGTTTTCCCGGTAATCCGTATTTGAC (site AGCTTTTCTGT)”, the figure is 0.136.
In the case of “AGCTACGCATGGACCGGTTTTCCCGGTAATCCGTATTTGTC (site AGCTACGCTGA)”, the “recombinant UMI read abundance (log10)” value was found to be 2.27.
With “AGCTAGACATGGACCGGTTTTCCCGGTAATCCGTATTTGGG (site AACTAGACTCC)” the figure was 0.0198; with “AGCTAGACATGGACCGGTTTTCCCGGTAATCCGTATTTGGG (site ACCTAGACTCC)”, 0.239.
With “AGCTAGACATGGACCGGTTTTCCCGGTAATCCGTATTTGGG (site AGCTAGACTCC)” the figure was 0.0244; with “AGCTAGACATGGACCGGTTTTCCCGGTAATCCGTATTTGGG (site ATCTAGACTCC)”, 0.0227; with “AGCTATTCATGGACCGGTTTTCCCGGTAATCCGTATTTGGC (site AGCTATTCTGC)”, 0.69.
As to “AGCTCAGCATGGACCGGTTTTCCCGGTAATCCGTATTTGCG (site AGCTCAGCTCA)”, the “recombinant UMI read abundance (log10)” value is 0.0116.
As for “AGCTCAGCATGGACCGGTTTTCCCGGTAATCCGTATTTGCG (site AGCTCAGCTCC)”, the figure is 0.00908.
“AGCTCAGCATGGACCGGTTTTCCCGGTAATCCGTATTTGCG (site AGCTCAGCTCG)”: the “recombinant UMI read abundance (log10)” value was found to be 0.537.
With “AGCTCAGCATGGACCGGTTTTCCCGGTAATCCGTATTTGCG (site AGCTCAGCTCT)” the figure was 0.277.
With “AGCTCCGCATGGACCGGTTTTCCCGGTAATCCGTATTTGCG (site AGCTCCGCTCG)” the figure was 0.271.
“AGCTGGTCATGGACCGGTTTTCCCGGTAATCCGTATTTGTA (site AGCTGGTCTTA)”: the “recombinant UMI read abundance (log10)” value stood at 0.951.
With “AGCTTAGCATGGACCGGTTTTCCCGGTAATCCGTATTTGGG (site AGCTAAGCTCC)” the figure was 0.0186.
With “AGCTTAGCATGGACCGGTTTTCCCGGTAATCCGTATTTGGG (site AGCTCAGCTCC)” the figure was 0.0187; with “AGCTTAGCATGGACCGGTTTTCCCGGTAATCCGTATTTGGG (site AGCTGAGCTCC)”, 0.034; with “AGCTTAGCATGGACCGGTTTTCCCGGTAATCCGTATTTGGG (site AGCTTAGCTCC)”, 0.0198.
As for “AGGAAACCATGGACCGGTTTTCCCGGTAATCCGTATTTGTT (site AGGAAACCTAA)”, the “recombinant UMI read abundance (log10)” value was determined as 0.
“AGGAAACCATGGACCGGTTTTCCCGGTAATCCGTATTTGTT (site CGGAATCCTAA)”: the “recombinant UMI read abundance (log10)” value is 0.
With “AGGAACACATGGACCGGTTTTCCCGGTAATCCGTATTTGAA (site AGGAACACTTT)”, the “recombinant UMI read abundance (log10)” value was found to be 2.29.
With “AGGAACACATGGACCGGTTTTCCCGGTAATCCGTATTTGAA (site AGGAAGACTTG)”, the “recombinant UMI read abundance (log10)” value is 0.
As for “AGGAACCCATGGACCGGTTTTCCCGGTAATCCGTATTTGCA (site AGGAACCCTTG)”, the figure is 0.786; as for “AGGAACCCATGGACCGGTTTTCCCGGTAATCCGTATTTGCA (site AGGAAGACTTG)”, 0.
“AGGAAGACATGGACCGGTTTTCCCGGTAATCCGTATTTGAA (site AGGAAGACTTA)”: the “recombinant UMI read abundance (log10)” value worked out at 0.985.
With “AGGAAGACATGGACCGGTTTTCCCGGTAATCCGTATTTGAA (site AGGAAGACTTC)” the figure was 0.592.
As for “AGGAAGACATGGACCGGTTTTCCCGGTAATCCGTATTTGAA (site AGGAAGACTTG)”, the figure is 0.298; as for “AGGAAGACATGGACCGGTTTTCCCGGTAATCCGTATTTGAA (site AGGAAGACTTT)”, 2.37; as for “AGGAAGACATGGACCGGTTTTCCCGGTAATCCGTATTTGCA (site AAGAACACTTG)”, 0.
As for “AGGAAGACATGGACCGGTTTTCCCGGTAATCCGTATTTGCA (site AAGAAGACTGG)”, the figure is 0; as for “AGGAAGACATGGACCGGTTTTCCCGGTAATCCGTATTTGCA (site AAGAAGACTTG)”, 1.06; as for “AGGAAGACATGGACCGGTTTTCCCGGTAATCCGTATTTGCA (site AAGAAGACTTT)”, 0.0128.
Take “AGGAAGACATGGACCGGTTTTCCCGGTAATCCGTATTTGCA (site AAGAAGCCTTG)”: the “recombinant UMI read abundance (log10)” value is 0.
With “AGGAAGACATGGACCGGTTTTCCCGGTAATCCGTATTTGCA (site AAGAGGACTTG)” the figure was 0.101; with “AGGAAGACATGGACCGGTTTTCCCGGTAATCCGTATTTGCA (site AAGTAGACTTG)”, 1.23.
For “AGGAAGACATGGACCGGTTTTCCCGGTAATCCGTATTTGCA (site AATAAGACTTG)”, the “recombinant UMI read abundance (log10)” value came out at 1.43.
With “AGGAAGACATGGACCGGTTTTCCCGGTAATCCGTATTTGCA (site ACAAAGACTTG)” the figure was 1.25; with “AGGAAGACATGGACCGGTTTTCCCGGTAATCCGTATTTGCA (site ACGAAAACTTG)”, 0; with “AGGAAGACATGGACCGGTTTTCCCGGTAATCCGTATTTGCA (site ACGAAGACTCG)”, 0.0101.
In the case of “AGGAAGACATGGACCGGTTTTCCCGGTAATCCGTATTTGCA (site ACGAAGACTTA)”, the “recombinant UMI read abundance (log10)” value is 0.00527.
With “AGGAAGACATGGACCGGTTTTCCCGGTAATCCGTATTTGCA (site ACGAAGACTTG)” the figure was 0.832.
“AGGAAGACATGGACCGGTTTTCCCGGTAATCCGTATTTGCA (site ACGAAGTCTTG)”: the “recombinant UMI read abundance (log10)” value was 0.
In the case of “AGGAAGACATGGACCGGTTTTCCCGGTAATCCGTATTTGCA (site ACGATGACTTG)”, the “recombinant UMI read abundance (log10)” value amounted to 0.
With “AGGAAGACATGGACCGGTTTTCCCGGTAATCCGTATTTGCA (site ACGGAGACTTG)” the figure was 2.51; with “AGGAAGACATGGACCGGTTTTCCCGGTAATCCGTATTTGCA (site AGAAAAACTTG)”, 0; with “AGGAAGACATGGACCGGTTTTCCCGGTAATCCGTATTTGCA (site AGAAAGACTCG)”, 0.0197.
As to “AGGAAGACATGGACCGGTTTTCCCGGTAATCCGTATTTGCA (site AGAAAGACTTA)”, the “recombinant UMI read abundance (log10)” value stood at 0.795.
For “AGGAAGACATGGACCGGTTTTCCCGGTAATCCGTATTTGCA (site AGAAAGACTTG)”, the “recombinant UMI read abundance (log10)” value worked out at 2.32.
As for “AGGAAGACATGGACCGGTTTTCCCGGTAATCCGTATTTGCA (site AGAAAGTCTTG)”, the figure is 0.0125; as for “AGGAAGACATGGACCGGTTTTCCCGGTAATCCGTATTTGCA (site AGAATGACTTG)”, 0.777; as for “AGGAAGACATGGACCGGTTTTCCCGGTAATCCGTATTTGCA (site AGAGAGACTTG)”, 1.79.
